From patent US12569875B2, “Film formation method” (FLOSFIA INC., priority 2023, dated 2026) come the findings set out here.

Data set [1] in a line: Preparation of an aqueous iridium complex solution (water solubility). In kind it is physicochemical. As to conditions: aqueous solution at iridium concentration 0.01 mol/L could not be prepared.
A short description of data set [2]: Thermogravimetric-differential thermal analysis (TG-DTA) of iridium complexes. In kind it is physicochemical. From the text:
The iridium complexes used in Examples and Comparative Examples described above were subjected to a thermogravimetric-differential thermal analysis (TG-DTA) under an oxygen atmosphere and a nitrogen atmosphere respectively, to examine decomposition properties of the complexes. […] As the iridium complex, the iridium complex represented be the above formula (3) and the iridium complex represented by the above formula (5) were used for Examples and Comparative Examples respectively.

iridium acetylacetonato [formula (5)]: in data set [1], the solubility in water entry is on record as “insoluble in water”. Besides, the “mass loss at 400 to 600° C.” value in data set [2] (TG-DTA, 400 to 600° C., FIG. 3) is on record as “little mass loss”. For the same substance, in data set [2] (at 400° C., temperature increase rate 20° C./min, FIG. 2 / FIG. 3), the mass loss ratio result was “about 70%”.
